Assay [1] relates to E. coli cell-free transcription-translation system. It counts as biochemical. The settings on record: for pIC50: read-out: IC50 for inhibition of protein synthesis (firefly luciferase).
For assay [2] the test system is unchanged. Type of assay: biochemical. Conditions: bacterial system.

pIC50: −log10 of the molar value.

As to AMSAPIP [BLS18], the pIC50 in assay [1] is 3.86. Regarding SILPYPY [BLS26], the “stimulation of protein synthesis (luciferase)” value in assay [1] is 20%. With SYPDLHL [BLS25], in assay [1], the “stimulation of protein synthesis (luciferase)” value is reported as 20%. AGAAMSH [BLS15]: in assay [1], the “inhibition of synthesis of GFP” value is “shown to inhibit synthesis of GFP” and the pIC50 was 4.82. The “combination effect with antibiotic on inhibition of protein synthesis” value in assay [2] (combination with streptomycin or other related antibiotics) was “synergistic action”. Also, in assay [2] (in the presence of 3 μM streptomycin), the “increase of potency in inhibiting protein synthesis” value was found to be 25 fold.

In general, pIC50 refers to the IC50 on a negative log10 scale, so that one unit is a factor of ten.

Values taken from patent US8648035B2 (priority 2007, dated 2014).
